Data published in patent US11076595B2, “1-(n,n-disubstituted carbamoyl) 4-(substituted sulfonyl)triazolin-5-one derivative, 4-(n,n-disubstituted carbamoyl) 1-(substituted sulfonyl)triazolin-5-one derivative, and herbicide containing said derivative as active ingredient” (HOKKO CHEMICAL INDUSTRY CO., LTD., priority 2017, dated 2021).

Experiments:
Assay type in all cases: in vivo
Amaranthus viridis [1] = assay: Test Example 3: herbicidal effect test by soil treatment in upland field; details: upland field soil treatment 1 day after sowing; 120 g/10a; evaluated 14 days after treatment
Description: (§1) This test was performed with two replications per one formulation concentration plot, and 14 days after the formulation treatments, the weed suppression rate (%) was determined according to the following equation (Math. 1). Weed suppression rate (%)=(1−an average dry weight (g) of plants in treated plots/an average dry weight (g) of plants in untreated plots)×100 [Math. 1]
(§2) A pot having a size of 36 cm^2 was filled with field soil (alluvial soil) and after uniformly mixing the soil of the surface layer of 1 cm with 20 grains of each weed seed of crabgrass, Echinochloa crus-galli, Chenopodium album and Amaranthus viridis, the surface layer was pressed lightly. One day after the sowing, an emulsifiable concentrate prepared according to Formulation Example 5 by using the compound shown in Table 7 below was diluted with water, and the water-diluted formulation was sprayed on the soil surface at a ratio of 100 liter per 10 are. The application rate of the active ingredient, by conversion, corresponded to 120 g per 10 are. Fourteen days after the formulation treatment, the herbicidal effect was evaluated by the same criteria as in Test Example 1.

crabgrass [2] = assay: as above; details: upland field soil treatment 1 day after sowing; 120 g/10a; evaluated 14 days after treatment
Description: as §1, §2

Chenopodium album [3] = assay: as above; details: upland field soil treatment 1 day after sowing; 120 g/10a; evaluated 14 days after treatment
Description: as §1, §2

Echinochloa crus-galli [4] = assay: as above; details: upland field soil treatment 1 day after sowing; 120 g/10a; evaluated 14 days after treatment
Description: as §1, §2

Scirpus juncoides [5] = assay: Test Example 1: herbicidal effect test by soil treatment in paddy field; details: 120 g/10a, paddy soil treatment just after sowing, 14 days after treatment
Procedure, shortened: (§3)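 Weed suppression rate (%) = (1 − mean treated dry weight/mean untreated dry weight) × 100, assessed 14 days after treatment. Compound, formulated as an emulsifiable concentrate, was added dropwise to flooded pots at 120 g a.i. per 10 are just after seeding.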

Lindernia pyxidaria [6] = assay: as above; details: 120 g/10a, paddy soil treatment just after sowing, 14 days after treatment
Procedure, shortened: as §3

Monochoria vaginalis [7] = assay: as above; details: 120 g/10a, paddy soil treatment just after sowing, 14 days after treatment
Procedure, shortened: as §3

Echinochloa crus-galli [8] = assay: as above; details: 120 g/10a, paddy soil treatment just after sowing, 14 days after treatment
Procedure, shortened: as §3

Scirpus juncoides [9] = assay: Test Example 2: herbicidal effect test by treatment during growing period in paddy field; details: treatment 7 days after sowing, 120 g/10a, evaluated 14 days after treatment
Procedure, shortened: (§4)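 Paddy soil in flooded pots (~3 cm water), 30 seeds per species sown 0–1 cm deep, greenhouse. Emulsifiable concentrate diluted in water and dripped into the water 7 days after sowing at 120 g a.i. per 10 are. Suppression (%) from dry weight vs untreated, 14 days post-treatment, two replicates.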

Lindernia pyxidaria [10] = assay: as above; details: treatment 7 days after sowing, 120 g/10a, evaluated 14 days after treatment
Procedure, shortened: as §4

Monochoria vaginalis [11] = assay: as above; details: treatment 7 days after sowing, 120 g/10a, evaluated 14 days after treatment
Procedure, shortened: as §4

Echinochloa crus-galli [12] = assay: as above; details: treatment 7 days after sowing, 120 g/10a, evaluated 14 days after treatment
Procedure, shortened: as §4

Amaranthus viridis [13] = assay: Test Example 4: herbicidal effect test by foliage treatment in upland field; details: upland field foliage treatment 7 days after sowing; 120 g/10a; evaluated 14 days after treatment
Description: as §1
as §2, with “Seven days” for “One day”, “8” for “7”

crabgrass [14] = assay: as above; details: upland field foliage treatment 7 days after sowing; 120 g/10a; evaluated 14 days after treatment
Description: as §1
as §2, with “Seven days” for “One day”, “8” for “7”

Chenopodium album [15] = assay: as above; details: upland field foliage treatment 7 days after sowing; 120 g/10a; evaluated 14 days after treatment
Description: as §1
as §2, with “Seven days” for “One day”, “8” for “7”

Echinochloa crus-galli [16] = assay: as above; details: upland field foliage treatment 7 days after sowing; 120 g/10a; evaluated 14 days after treatment
Description: as §1
as §2, with “Seven days” for “One day”, “8” for “7”

Row | SMILES | herbicidal effect (weed suppression rate), Amaranthus viridis (Amaranthus viridis [1]) [%] | herbicidal effect (weed suppression rate), Crabgrass (crabgrass [2]) [%] | herbicidal effect (weed suppression rate), Chenopodium album (Chenopodium album [3]) [%] | herbicidal effect (weed suppression rate), Echinochloa crus-galli (Echinochloa crus-galli [4]) [%] | weed suppression rate, Scirpus juncoides (Scirpus juncoides [5]) [%] | weed suppression rate, Lindemia pyxidaria (Lindernia pyxidaria [6]) [%] | weed suppression rate, Monochoria vaginalis (Monochoria vaginalis [7]) [%] | weed suppression rate, Echinochloa crus-galli (Echinochloa crus-galli [8]) [%] | weed suppression rate, Scirpus juncoides (Scirpus juncoides [9]) [%] | weed suppression rate, Lindemia pyxidaria (Lindernia pyxidaria [10]) [%] | weed suppression rate, Monochoria vaginalis (Monochoria vaginalis [11]) [%] | weed suppression rate, Echinochloa crus-galli (Echinochloa crus-galli [12]) [%] | herbicidal effect (weed suppression rate), Amaranthus viridis (Amaranthus viridis [13]) [%] | herbicidal effect (weed suppression rate), Crabgrass (crabgrass [14]) [%] | herbicidal effect (weed suppression rate), Chenopodium album (Chenopodium album [15]) [%] | herbicidal effect (weed suppression rate), Echinochloa crus-galli (Echinochloa crus-galli [16]) [%]
1 | CCN(CC)S(=O)(=O)n1cnn(C(=O)N(c2ccc(F)cc2F)C(C)C)c1=O [Compound 1-1140] | 90 | 90 | 80 | 80 | 90 | 80 | 80 | 90 |  |  |  |  |  |  |  | 
2 | CC(C)N(C(=O)n1ncn(S(=O)(=O)C2CCCCC2)c1=O)c1ccc(F)cc1F [Compound 1-306] | 90 | 90 | 80 | 80 | 100 | 100 | 100 | 100 | 90 | 100 | 100 | 100 |  |  |  | 
3 | CC(C)N(C(=O)n1ncn(S(=O)(=O)N2CCCCC2)c1=O)c1ccc(F)cc1F [Compound 1-1143] | 90 | 90 | 80 | 80 | 90 | 80 | 80 | 90 | 90 | 80 | 80 | 90 |  |  |  | 
4 | CC(C)N(C(=O)n1ncn(S(=O)(=O)C(C)C)c1=O)c1ccc(F)nc1 [Compound 1-242] | 90 | 90 | 80 | 80 |  |  |  |  |  |  |  |  |  |  |  | 
5 | CC(C)N(C(=O)n1ncn(S(=O)(=O)C2CCCCC2)c1=O)c1c(F)c(F)cc(F)c1F [Compound 1-311] |  |  |  |  | 100 | 100 | 100 | 100 | 90 | 80 | 100 | 100 | 0 | 100 | 60 | 100
6 | CC(C)N(C(=O)n1ncn(S(=O)(=O)C2CC2)c1=O)c1c(F)c(F)cc(F)c1F [Compound 1-206] |  |  |  |  | 100 | 100 | 90 | 100 | 100 | 80 | 90 | 100 | 80 | 100 | 60 | 100
7 | CC(C)N(C(=O)n1ncn(S(=O)(=O)C2CCCCC2)c1=O)c1ccc(F)c(F)c1F [Compound 1-309] |  |  |  |  | 100 | 100 | 100 | 100 | 100 | 80 | 100 | 100 | 0 | 100 | 80 | 100
8 | CC(C)N(C(=O)n1ncn(S(=O)(=O)C2CC2)c1=O)c1cccc(F)c1 [Compound 1-170] |  |  |  |  | 90 | 100 | 90 | 90 | 90 | 90 | 90 | 100 | 90 | 90 | 80 | 80
9 | CC(C)N(C(=O)n1ncn(S(=O)(=O)C2CC2)c1=O)c1ccc(C(F)(F)F)cc1F [Compound 1-226] |  |  |  |  | 100 | 100 | 100 | 100 | 90 | 80 | 100 | 100 | 90 | 100 | 80 | 100
10 | Cc1cc(N(C(=O)n2ncn(S(=O)(=O)C(C)C)c2=O)C(C)C)no1 [Compound 1-99] |  |  |  |  | 50 | 80 | 90 | 60 | 90 | 80 | 80 | 90 | 90 | 90 | 80 | 80
